Activity calls are given as the source filed them. No cut-off for these calls is given here.
Molecular target: Prothrombin (Homo sapiens) (UniProt P00734)
Assay: Tested for thrombin inhibitory activity by fibrinogen dependent thrombin assay; Inactive

In the case of `Cc1cn([C@H]2C[C@@H]3OP(=O)(O)OC[C@H]4O[C@@H](n5cnc6c(O)nc(N)nc65)C[C@@H]4OP(=O)(O)OC[C@H]4O[C@@H](C[C@@H]4OP(=O)(O)OC(C)C)n4cc(c(=O)[nH]c4=O)COCOC[C@H]3O2)c(=O)[nH]c1=O`, the Activity is reported as “inactive”.

From ChEMBL document CHEMBL1130311, “Design and synthesis of a possible mimic of a thrombin-binding DNA aptamer” (Bioorg Med Chem Lett, 1997)
